Test results reported in ChEMBL document CHEMBL2424584, “Novel cross-link breaker based on zwitterion structure: synthesis, structure and druggability studies” (Eur J Med Chem, 2013).
Active and inactive are the calls of the source. No cut-off for these calls is given here.

Species on record: Rattus norvegicus
Assay: Reversible of increased arterial stiffness associated with diabetes in rat
Type: functional, organism-based

Structure (SMILES): Cc1csc[n+]1CC(=O)[O-]
- Activity: Active
